# Target: T1, USP28 (USP28-5(1-1077)-TEV-6*His; LifeSensors) (Homo sapiens, UniProt Q96RU2)
# T1 construct: construct USP28 (USP28-5(1-1077)-TEV-6*His; LifeSensors); TEV cleavage site (C); 6xHis (C); purchased LifeSensors
# T1 sequence (Q96RU2 1-1077): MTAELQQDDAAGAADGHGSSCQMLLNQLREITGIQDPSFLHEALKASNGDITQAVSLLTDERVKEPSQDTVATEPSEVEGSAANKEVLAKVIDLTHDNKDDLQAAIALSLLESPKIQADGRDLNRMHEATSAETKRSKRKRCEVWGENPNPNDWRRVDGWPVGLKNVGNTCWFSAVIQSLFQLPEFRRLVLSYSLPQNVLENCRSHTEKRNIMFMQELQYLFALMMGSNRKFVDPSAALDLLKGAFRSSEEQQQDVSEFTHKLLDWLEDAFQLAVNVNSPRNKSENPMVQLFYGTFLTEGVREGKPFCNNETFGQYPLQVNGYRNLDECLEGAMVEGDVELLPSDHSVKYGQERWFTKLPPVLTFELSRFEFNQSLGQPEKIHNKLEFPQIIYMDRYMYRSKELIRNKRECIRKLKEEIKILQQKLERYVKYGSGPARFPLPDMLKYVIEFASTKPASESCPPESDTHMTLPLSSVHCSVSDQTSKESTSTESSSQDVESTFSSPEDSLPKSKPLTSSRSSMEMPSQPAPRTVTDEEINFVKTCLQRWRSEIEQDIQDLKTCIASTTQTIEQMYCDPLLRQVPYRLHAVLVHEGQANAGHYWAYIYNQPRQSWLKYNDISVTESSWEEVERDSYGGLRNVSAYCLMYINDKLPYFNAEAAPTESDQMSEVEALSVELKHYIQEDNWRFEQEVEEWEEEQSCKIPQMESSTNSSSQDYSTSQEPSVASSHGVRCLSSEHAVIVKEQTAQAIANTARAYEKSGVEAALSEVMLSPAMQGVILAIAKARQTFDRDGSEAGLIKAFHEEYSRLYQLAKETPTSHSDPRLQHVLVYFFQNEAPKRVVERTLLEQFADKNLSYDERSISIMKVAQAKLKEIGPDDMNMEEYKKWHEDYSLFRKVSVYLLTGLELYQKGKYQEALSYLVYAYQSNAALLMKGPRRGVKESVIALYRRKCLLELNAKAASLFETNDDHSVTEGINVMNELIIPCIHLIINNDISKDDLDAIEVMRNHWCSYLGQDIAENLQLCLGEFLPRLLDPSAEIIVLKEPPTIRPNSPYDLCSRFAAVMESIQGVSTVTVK
# Experiment: Ubiquitin-Rhodamine 110 Assay for USP28 Activity, Example A-1(b)
# Assay type: biochemical
# Details: Ub-Rh110 assay, Example A-1(b)
# In short: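 Single-point screening used 10 μM compound with 90 min room-temperature incubation; follow-up dose-responses (25 μM top, 3-fold) used 75 pM USP28 1-1077 construct, 30 min compound preincubation, 25 nM Ub-Rh110, 20 min reaction, citric acid quench. Rh110 fluorescence normalised to no-enzyme and DMSO controls; IC50 from 4-parameter logistic fit.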
row,SMILES,USP28 A-1(b) IC50 range
1,"Cc1ccc2c(N)c(C(=O)N[C@H]3COc4c(ccc(N5CCNCC5)c4F)C3)sc2n1 [Example 1-33, (R)-3-amino-N-(8-fluoro-7-(piperazin-1-yl)chroman-3-yl)-6-methylthieno[2,3-b]pyridine-2-carboxamide]",+++ (0.05-0.2 μM)
2,"Cc1ccc2c(N)c(C(=O)N[C@@H]3COc4c(ccc(N5CCNCC5)c4F)C3)sc2n1 [Example 1-34, (S)-3-amino-N-(8-fluoro-7-(piperazin-1-yl)chroman-3-yl)-6-methylthieno[2,3-b]pyridine-2-carboxamide]",+ (>2 μM)
3,"Cc1ccc2c(N)c(C(=O)N[C@H]3COc4cc(N5CCNCC5)c(F)cc4C3)sc2n1 [Example 1-35, (R)-3-amino-N-(6-fluoro-7-(piperazin-1-yl)chroman-3-yl)-6-methylthieno[2,3-b]pyridine-2-carboxamide]",+++ (0.05-0.2 μM)
4,"Cc1ccc2c(N)c(C(=O)N[C@@H]3COc4cc(N5CCNCC5)c(F)cc4C3)sc2n1 [Example 1-36, (S)-3-amino-N-(6-fluoro-7-(piperazin-1-yl)chroman-3-yl)-6-methylthieno[2,3-b]pyridine-2-carboxamide]",+ (>2 μM)
5,"Cc1ccc2c(N)c(C(=O)N[C@H]3COc4cc(N5CC6CNCC(C5)C6(F)F)ccc4C3)sc2n1 [Example 2-1, 3-Amino-N-((3R)-7-(9,9-difluoro-3,7-diazabicyclo[3.3.1]nonan-3-yl)chroman-3-yl)-6-methylthieno[2,3-b]pyridine-2-carboxamide]",++++ (0.001-0.05 μM)
6,"Cc1ccc2c(N)c(C(=O)N[C@H]3COc4cc(N5CC6CC(C5)N6)ccc4C3)sc2n1 [Example 2-2, N-((3R)-7-(3,6-diazabicyclo[3.1.1]heptan-3-yl)chroman-3-yl)-3-amino-6-methylthieno[2,3-b]pyridine-2-carboxamide]",+++ (0.05-0.2 μM)
7,"Cc1ccc2c(N)c(C(=O)N[C@@H]3COc4cc(N5CC6CC(C5)N6)ccc4C3)sc2n1 [Example 2-3, N-((3S)-7-(3,6-diazabicyclo[3.1.1]heptan-3-yl)chroman-3-yl)-3-amino-6-methylthieno[2,3-b]pyridine-2-carboxamide]",+ (>2 μM)
8,"Cc1ccc2c(N)c(C(=O)N[C@H]3COc4cc(N5CCNC[C@@H]5C)ccc4C3)sc2n1 [Example 2-4, 3-amino-6-methyl-N-((R)-7-((S)-2-methylpiperazin-1-yl)chroman-3-yl)thieno[2,3-b]pyridine-2-carboxamide]",++++ (0.001-0.05 μM)
9,"Cc1ccc2c(N)c(C(=O)N[C@H]3COc4cc(N5CCNC[C@H]5C)ccc4C3)sc2n1 [Example 2-5, 3-amino-6-methyl-N-((R)-7-((R)-2-methylpiperazin-1-yl)chroman-3-yl)thieno[2,3-b]pyridine-2-carboxamide]",++++ (0.001-0.05 μM)
10,"Cc1ccc2c(N)c(C(=O)N[C@H]3COc4cc(N5C6CCC5CNC6)ccc4C3)sc2n1 [Example 2-6, N-((3R)-7-(3,8-diazabicyclo[3.2.1]octan-8-yl)chroman-3-yl)-3-amino-6-methylthieno[2,3-b]pyridine-2-carboxamide]",+++ (0.05-0.2 μM)
11,"Cc1ccc2c(N)c(C(=O)N[C@H]3COc4cc(N5CCCC56CNC6)ccc4C3)sc2n1 [Example 2-7, (R)-N-(7-(2,5-diazaspiro[3.4]octan-5-yl)chroman-3-yl)-3-amino-6-methylthieno[2,3-b]pyridine-2-carboxamide]",+++ (0.05-0.2 μM)
12,"Cc1ccc2c(N)c(C(=O)N[C@H]3COc4cc(N5CCN[C@@H](C)C5)ccc4C3)sc2n1 [Example 2-8, 3-amino-6-methyl-N-((R)-7-((S)-3-methylpiperazin-1-yl)chroman-3-yl)thieno[2,3-b]pyridine-2-carboxamide]",++ (0.2-2 μM)
13,"Cc1ccc2c(N)c(C(=O)N[C@H]3COc4cc(N5CCN[C@H](C)C5)ccc4C3)sc2n1 [Example 2-9, 3-amino-6-methyl-N-((R)-7-((R)-3-methylpiperazin-1-yl)chroman-3-yl)thieno[2,3-b]pyridine-2-carboxamide]",++ (0.2-2 μM)
14,Cc1ccc2c(N)c(C(=O)N[C@H]3COc4cc(N5CCNCC56COC6)ccc4C3)sc2n1 [Example 2-10],+++ (0.05-0.2 μM)
15,"Cc1cnc2c(N)c(C(=O)N[C@H]3COc4cc(N5CC6CC(C5)N6)ccc4C3)sc2n1 [Example 2-11, N-((3R)-7-(3,6-diazabicyclo[3.1.1]heptan-3-yl)chroman-3-yl)-7-amino-3-methylthieno[2,3-b]pyrazine-6-carboxamide]",++ (0.2-2 μM)
16,"Cc1cnc2c(N)c(C(=O)N[C@H]3COc4cc(N5CC6COCC(C5)N6)ccc4C3)sc2n1 [Example 2-12, N-((3R)-7-(3-oxa-7,9-diazabicyclo[3.3.1]nonan-7-yl)chroman-3-yl)-7-amino-3-methylthieno[2,3-b]pyrazine-6-carboxamide]",++ (0.2-2 μM)
17,"Cc1cnc2c(N)c(C(=O)N[C@H]3COc4cc(N5CC6CNCC(C5)O6)ccc4C3)sc2n1 [Example 2-13, N-((3R)-7-(9-oxa-3,7-diazabicyclo[3.3.1]nonan-3-yl)chroman-3-yl)-7-amino-3-methylthieno[2,3-b]pyrazine-6-carboxamide]",++ (0.2-2 μM)
18,"COc1nc2sc(C(=O)N[C@H]3COc4cc(N5CCNCC5)ccc4C3)c(N)c2cc1F [Example 2-16, (R)-3-amino-5-fluoro-6-methoxy-N-(7-(piperazin-1-yl)chroman-3-yl)thieno[2,3-b]pyridine-2-carboxamide]",++ (0.2-2 μM)
19,"Cc1cc(C)c2c(N)c(C(=O)N[C@H]3COc4cc(N5CCNCC5)ccc4C3)sc2n1 [Example 2-17, (R)-3-amino-4,6-dimethyl-N-(7-(piperazin-1-yl)chroman-3-yl)thieno[2,3-b]pyridine-2-carboxamide]",+++ (0.05-0.2 μM)
20,"Cc1cc(C)c2c(N)c(C(=O)N[C@H]3COc4cc(N5CC6CC(C5)N6)ccc4C3)sc2n1 [Example 2-18, N-((3R)-7-(3,6-diazabicyclo[3.1.1]heptan-3-yl)chroman-3-yl)-3-amino-4,6-dimethylthieno[2,3-b]pyridine-2-carboxamide]",+++ (0.05-0.2 μM)
21,"Cc1cc(C)c2c(N)c(C(=O)N[C@H]3COc4cc(N5CC6CNCC(C5)C6(F)F)ccc4C3)sc2n1 [Example 2-19, 3-amino-N-((3R)-7-(9,9-difluoro-3,7-diazabicyclo[3.3.1]nonan-3-yl)chroman-3-yl)-4,6-dimethylthieno[2,3-b]pyridine-2-carboxamide]",++++ (0.001-0.05 μM)
22,"Cc1cc(C)c2c(N)c(C(=O)N[C@H]3COc4cc(N5CC6CNCC(C5)O6)ccc4C3)sc2n1 [Example 2-20, N-((3R)-7-(9-oxa-3,7-diazabicyclo[3.3.1]nonan-3-yl)chroman-3-yl)-3-amino-4,6-dimethylthieno[2,3-b]pyridine-2-carboxamide]",+++ (0.05-0.2 μM)
23,Cc1cc(C(F)(F)F)c2c(N)c(C(=O)N[C@H]3COc4cc(N5CC6CC(C5)N6)ccc4C3)sc2n1 [Example 2-21],++ (0.2-2 μM)
24,"Cc1cc(C(F)(F)F)c2c(N)c(C(=O)N[C@H]3COc4cc(N5CC6CNCC(C5)C6(F)F)ccc4C3)sc2n1 [Example 2-22, 3-amino-N-((3R)-7-(9,9-difluoro-3,7-diazabicyclo[3.3.1]nonan-3-yl)chroman-3-yl)-6-methyl-4-(trifluoromethyl)thieno[2,3-b]pyridine-2-carboxamide]",++++ (0.001-0.05 μM)
25,"O=C(N[C@H]1COc2cc(N3CC4CCC(C3)N4)ccc2C1)c1cnc2c(c1)C1(CCN2)CC1 [Example 2-24, N-((3R)-7-(3,8-diazabicyclo[3.2.1]octan-3-yl)chroman-3-yl)-2′,3′-dihydro-1′H-spiro[cyclopropane-1,4′-[1,8]naphthyridine]-6′-carboxamide]",+ (>2 μM)
26,"O=C(N[C@H]1COc2cc(N3CC4CCC(C3)N4)ccc2C1)c1ccc(NCc2ccccc2)nc1 [Example 2-25, N-((3R)-7-(3,8-diazabicyclo[3.2.1]octan-3-yl)chroman-3-yl)-6-(benzylamino)nicotinamide]",++ (0.2-2 μM)
